According to patent US11214803B2, “Modulators of YAP1 expression” (Ionis Pharmaceuticals, Inc., priority 2019, dated 2022):
Strand notation (5' to 3'): a small letter for the sugar, then the base; units joined by * are phosphorothioate-linked, units joined directly phosphodiester-linked; [ ] holds rarer units or linkages, { } end groups; capitals alone tell only the bases. k = constrained ethyl (cEt); [5mC] = 5-methylcytosine; d = 2'-deoxy (DNA)

System: Yap1 mRNA
Experiment: Antisense inhibition of human Yap1 in A-431 cells by cEt gapmers, single dose (Example 3, RTS36584)
Type: cell-based
Conditions: Table 8; A-431 cells, 5,000 cells per well, free uptake, 2,000 nM, approximately 48 hours; RTS36584; normalized to RIBOGREEN; Yap1 mRNA relative to untreated control cells
Method in brief: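 A-431 cells were treated by free uptake with 2,000 nM modified oligonucleotide (3-10-3 cEt gapmers, full phosphorothioate, 5-methylcytosines) for about 48 hours. Yap1 mRNA was quantified by real-time RT-PCR, normalized to RiboGreen total RNA, and expressed as % of untreated control; asterisked values mark oligonucleotides targeting the amplicon region.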

Substance | YAP1 (% UTC)
958372 (antisense kG*kG*kT*dG*d[5mC]*dT*dA*dG*d[5mC]*dT*dG*dG*dT*kG*k[5mC]*k[5mC]) [Compound 958372] | 49 % UTC
958356 (antisense kT*kT*kG*dA*dA*dG*dA*dA*dG*dG*dA*dG*dT*k[5mC]*kG*kG) [Compound 958356] | 9 % UTC
958420 (antisense kT*kT*k[5mC]*dA*dT*dA*dA*dT*d[5mC]*dT*dG*dA*d[5mC]*kT*kA*kG) [Compound 958420] | 66 % UTC
958374 (antisense k[5mC]*kA*kG*dA*dG*dG*dT*dG*d[5mC]*dT*dA*dG*d[5mC]*kT*kG*kG) [Compound 958374] | 38 % UTC
958410 (antisense kT*kT*kT*dA*d[5mC]*d[5mC]*dA*dA*dA*dA*d[5mC]*dG*dA*kG*kG*kG) [Compound 958410] | 70 % UTC

Same assay, conditions: Table 9; A-431 cells, 5,000 cells per well, free uptake, 2,000 nM, approximately 48 hours; RTS36584; normalized to RIBOGREEN; Yap1 mRNA relative to untreated control cells

Substance | YAP1 (% UTC)
958801 (antisense k[5mC]*kG*k[5mC]*dT*dA*dG*d[5mC]*dA*d[5mC]*dG*d[5mC]*dG*d[5mC]*kG*k[5mC]*kT) [Compound 958801] | 131 % UTC
958811 (k[5mC]*kA*k[5mC]*dT*dG*dA*dG*dG*d[5mC]*dA*d[5mC]*dG*dG*k[5mC]*k[5mC]*k[5mC]; antisense) [Compound 958811] | 92 % UTC
958476 (antisense kT*kT*k[5mC]*d[5mC]*dG*dG*dT*dG*d[5mC]*dA*dT*dG*dT*kG*kT*k[5mC]) [Compound 958476] | 2 % UTC

Same assay, conditions: Table 10; A-431 cells, 5,000 cells per well, free uptake, 2,000 nM oligonucleotide, approx. 48 hours; primer probe set RTS36584; Yap1 mRNA normalized to RIBOGREEN, percent of untreated control

Substance | YAP1 (% UTC)
958777 (antisense kG*kT*kA*dA*d[5mC]*dT*dG*dT*dT*dT*d[5mC]*dT*dA*kG*kG*kT) [Compound 958777] | 10 % UTC
958787 (antisense kT*kG*kG*dG*d[5mC]*dA*dA*dA*dG*dT*dT*d[5mC]*d[5mC]*kT*k[5mC]*kT) [Compound 958787] | 67 % UTC
958507 (kG*kA*kG*d[5mC]*dA*dG*dA*dT*dA*dA*dT*d[5mC]*dG*kA*kG*kA; antisense) [Compound 958507] | 6 % UTC

Same assay, conditions: Table 11; A-431 cells, 5,000 cells per well, free uptake, 2,000 nM oligonucleotide, approx. 48 hours; primer probe set RTS36584; Yap1 mRNA normalized to RIBOGREEN, percent of untreated control

Substance | YAP1 (% UTC)
958803 (antisense kG*kA*kT*dA*dA*dT*d[5mC]*dA*dT*d[5mC]*d[5mC]*dT*d[5mC]*kA*kG*k[5mC]) [Compound 958803] | 24 % UTC
958788 (antisense k[5mC]*kT*kG*dG*dG*d[5mC]*dA*dA*dA*dG*dT*dT*d[5mC]*k[5mC]*kT*k[5mC]) [Compound 958788] | 54 % UTC
958523 (kT*kT*k[5mC]*d[5mC]*dA*dA*dT*d[5mC]*dG*dA*dG*dA*d[5mC]*kT*kT*kA; antisense) [Compound 958523] | 3 % UTC
958648 (kG*kA*kA*dT*dA*d[5mC]*dT*dG*dA*dG*dT*d[5mC]*dA*kG*kG*kA; antisense) [Compound 958648] | 7 % UTC
958573 (kG*kG*k[5mC]*dA*dA*dA*dT*dT*dA*dT*dA*dG*dG*k[5mC]*kA*k[5mC]; antisense) [Compound 958573] | 2 % UTC

Same assay, conditions: Table 12; A-431 cells, 5,000 cells per well, free uptake, 2,000 nM modified oligonucleotide, approx. 48 hours; RTS36584; normalized to RIBOGREEN; Yap1 mRNA relative to untreated control cells

Substance | YAP1 (% UTC)
958724 (antisense kT*k[5mC]*kA*dG*dT*dT*dA*dT*d[5mC]*d[5mC]*dT*dA*dT*k[5mC]*k[5mC]*k[5mC]) [Compound 958724] | 2 % UTC
958629 (antisense k[5mC]*k[5mC]*k[5mC]*dG*dA*dG*dT*dG*dG*dG*d[5mC]*dT*dA*kA*k[5mC]*kT) [Compound 958629] | 128 % UTC

Same assay, conditions: Table 13; A-431 cells, 5,000 cells per well, free uptake, 2,000 nM modified oligonucleotide, approx. 48 hours; RTS36584; normalized to RIBOGREEN; Yap1 mRNA relative to untreated control cells

Substance | YAP1 (% UTC)
958645 (kG*k[5mC]*k[5mC]*d[5mC]*dA*dT*dA*dG*dT*dT*dG*dA*d[5mC]*kA*kG*kG; antisense) [Compound 958645] | 54 % UTC
958670 (kG*kG*kT*d[5mC]*dT*dT*dG*dG*dT*dG*dA*dT*dT*kG*kG*k[5mC]; antisense) [Compound 958670] | 20 % UTC
958620 (antisense kA*kA*kG*d[5mC]*d[5mC]*dT*dT*dG*dG*dG*dT*d[5mC]*dT*kA*kG*k[5mC]) [Compound 958620] | 57 % UTC
958745 (antisense kT*k[5mC]*k[5mC]*d[5mC]*dA*dG*d[5mC]*d[5mC]*dG*d[5mC]*dA*dT*dG*kG*k[5mC]*kT) [Compound 958745] | 78 % UTC
958630 (antisense kG*k[5mC]*kG*dG*dT*dA*dA*d[5mC]*dT*d[5mC]*dT*dT*d[5mC]*kT*kT*kT) [Compound 958630] | 52 % UTC

Same assay, conditions: Table 26; Yap1 mRNA by 3-10-3 cEt gapmers targeting SEQ ID NO.: 1, and 2; percent of untreated control

Substance | YAP1 (% UTC)
1076364 (antisense k[5mC]*k[5mC]*kA*dT*dA*dA*dA*dA*dG*dT*d[5mC]*d[5mC]*dA*k[5mC]*kT*kA) [compound 1076364] | 30 % UTC
1075820 (kT*k[5mC]*kT*dG*dA*dA*d[5mC]*dG*dG*dG*d[5mC]*dT*dG*kT*kT*kG; antisense) [compound 1075820] | 27 % UTC
1074316 (antisense kG*kG*kA*dT*dT*dG*dA*dT*dA*dT*dT*d[5mC]*d[5mC]*kG*k[5mC]*kA) [compound 1074316] | 33 % UTC
1074828 (kA*kT*kA*dA*dA*dA*dT*d[5mC]*d[5mC]*dA*d[5mC]*d[5mC]*dT*kG*kA*kG; antisense) [compound 1074828] | 58 % UTC
1074604 (DNA kT*kT*kA*dT*dT*dA*dA*dT*d[5mC]*dT*dG*dA*dT*k[5mC]*kA*k[5mC]) [compound 1074604] | 12 % UTC

Same assay, conditions: Table 27; Yap1 mRNA by 3-10-3 cEt gapmers targeting SEQ ID NO.: 1, and 2; percent of untreated control

Substance | YAP1 (% UTC)
1075277 (antisense kT*kT*kA*dT*dA*dA*dG*dA*dA*d[5mC]*dT*dG*dT*kG*kG*k[5mC]) [compound 1075277] | 13 % UTC
1074285 (antisense kG*k[5mC]*kA*dA*dA*dA*d[5mC]*dG*dA*dG*dG*dG*dT*k[5mC]*kA*kA) [compound 1074285] | 17 % UTC
1074925 (antisense kG*k[5mC]*k[5mC]*dT*dG*d[5mC]*dA*dA*dA*dT*dA*dG*dG*kA*kG*kA) [compound 1074925] | 94 % UTC
1074125 (kG*k[5mC]*kG*dG*d[5mC]*dT*dG*d[5mC]*dG*d[5mC]*d[5mC]*dT*d[5mC]*kG*kG*kG; antisense) [compound 1074125] | 94 % UTC
1075373 (antisense kT*kA*kT*dA*dT*dA*dT*dA*dG*dA*d[5mC]*dT*dT*kG*kA*kG) [compound 1075373] | 13 % UTC
1074253 (antisense kT*k[5mC]*kT*dG*dG*dG*dA*d[5mC]*dA*dG*d[5mC]*dA*dT*kG*kG*k[5mC]) [compound 1074253] | 11 % UTC

Same assay, conditions: Table 28; Yap1 mRNA as percent of untreated control; 3-10-3 cEt gapmers targeting SEQ ID NO.: 1, and 2

Substance | YAP1 (% UTC)
1075758 (kG*kT*kA*dA*dT*dT*dT*dA*dA*dT*dA*dG*dA*k[5mC]*kT*kA; antisense) [compound 1075758] | 73 % UTC
1075054 (antisense k[5mC]*kA*kA*dT*dA*dT*dA*dT*dA*d[5mC]*dT*dT*dG*kA*kT*k[5mC]) [compound 1075054] | 48 % UTC
1074990 (antisense kG*k[5mC]*k[5mC]*dG*d[5mC]*dA*dA*dA*dG*dG*dA*dA*dA*kG*kG*kG) [compound 1074990] | 108 % UTC
1074190 (antisense k[5mC]*kG*kG*d[5mC]*dG*dG*dG*d[5mC]*d[5mC]*d[5mC]*dT*dG*d[5mC]*k[5mC]*k[5mC]*k[5mC]) [compound 1074190] | 114 % UTC
1076302 (kA*kA*kT*dA*dA*dG*d[5mC]*d[5mC]*dT*d[5mC]*dA*d[5mC]*d[5mC]*kT*kT*kT; antisense) [compound 1076302] | 74 % UTC

Same assay, conditions: Table 29; Yap1 mRNA as percent of untreated control; 3-10-3 cEt gapmers targeting SEQ ID NO.: 1, and 2

Substance | YAP1 (% UTC)
1075119 (kA*kG*kG*dG*dA*dA*dT*dA*dT*dG*dT*dT*dA*kA*kT*k[5mC]; antisense) [compound 1075119] | 8 % UTC
1075279 (antisense k[5mC]*kT*kA*dT*dA*d[5mC]*dT*dA*dA*d[5mC]*dA*dT*dT*k[5mC]*kA*k[5mC]) [compound 1075279] | 52 % UTC
1075471 (antisense kA*kG*k[5mC]*d[5mC]*dA*dA*dT*dA*dA*dG*dT*dT*dA*kT*k[5mC]*kA) [compound 1075471] | 55 % UTC

Same assay, conditions: Table 34; Yap1 mRNA as percent of untreated control; 3-10-3 cEt gapmers targeting SEQ ID NO: 1 and 2; single dose

Substance | YAP1 (% UTC)
1075924 (antisense kA*kT*kT*dT*dA*dA*dT*dA*d[5mC]*dT*d[5mC]*dT*d[5mC]*kT*kG*kG) [compound 1075924] | 21 % UTC
1074356 (antisense kG*kA*kG*dG*dG*dA*d[5mC]*dA*d[5mC]*dT*dG*dT*dA*kG*k[5mC]*kT) [compound 1074356] | 43 % UTC
1074164 (k[5mC]*k[5mC]*kA*dG*dG*d[5mC]*dG*dA*dG*d[5mC]*dG*dA*dG*kG*kG*k[5mC]; antisense) [compound 1074164] | 135 % UTC

Same assay, conditions: Table 35; Yap1 mRNA as percent of untreated control; 3-10-3 cEt gapmers targeting SEQ ID NO: 1 and 2; single dose

Substance | YAP1 (% UTC)
1076501 (k[5mC]*kA*kT*dA*dA*d[5mC]*dA*d[5mC]*dT*dT*dA*dA*dG*kG*kT*kG; antisense) [compound 1076501] | 97 % UTC
